The values that follow come from US6653346B1, “Cytoprotective benzofuran derivatives” (Galileo Pharmaceuticals, Inc., priority 2002, dated 2003).

This test concerns CRP in Hep3B cells. As to the kind of experiment: Human Hep3B cells - CRP assay (CRP ELISA). The following applies: 72 h, Hep3B cells stimulated with IL-1β, IL-6 and dexamethasone, three days, read-out: EC50 for reducing CRP levels. It counts as cell-based. From the text:
Hep3B Cell Line is obtained from the American Type Culture Collection (ATCC Catalog No. HB-8064). The Hep3B cell line was derived from liver tissue of […]. The cells are epithelial in morphology and produce tumors in nude mice. The cells produce α-fetoprotein, hepatitis B surface antigen, albumin, α-2-macroglobulin, α-1-antitrypsin, transferrin, plasminogen, complement C3 and β-lipoprotein (Knowles BB, et al., Science, 1980, 209:497-499). This cell line has been widely used to study hepatocyte cytokine and acute phase protein release (e.g., Damtew B, et al.,1993, J Immunol 150:4001-4007).
HEP3B cells are grown in Minimum Essential Medium (MEM; GIBCO) supplemented with 10% Fetal Bovine Serum (FBS; Hyclone), 1×Penicillin/Streptomycin (GIBCO, Cat #15140-122) and 0.1 mM non-essential amino acids (GIBCO, Catalog No. 11140-050). Cells are thawed and transferred to warm medium according to standard methods known in the art.
Cells are incubated in flasks at 37° C. with 5% CO2 in an air atmosphere incubator. HEP3B growth media is changed every 2 days until the cells reach 70-80% confluence (approx. 3-4 days). For assay, the cells are transferred to 96-well plates, seeded at 5000 cells per well in culture media, and left to grow for 7 days in a 37° C. incubator (air supplemented with 5% CO2). Media is replaced daily until assay. Test compounds are diluted into “Stimulus Buffer” (MEM medium containing 0.1 mM non-essential amino acids, 1×penicillin/streptomycin, 10% FBS with 10 ng/ml IL-1β, 20 ng/ml IL-6 and 1 μM dexamethasone. Media is removed from the cells and is replaced with 200 μl of test dilution. Cells are returned to the incubator for three days at 37° C. CRP ELISA is then performed on supernatant from the cells, as described below.
Costar EIA/RIA plates are coated with rabbit anti-human CRP (DAKO) diluted 1:4000 in carbonate buffer (100 μl/well) for 45 minutes at 37° C. Plates are then washed 5×with CRP washing buffer (50 mM Tris-HCl, 0.3M NaCl, […], pH 8.0) using an automatic plate washer. Plates may be dried, covered and refrigerated until use. Supernatant (100 μl) is removed from each well of the test plates and added to the corresponding well of a precoated ELISA plate.
100 μl HRP-conjugated rabbit anti-human CRP (DAKO) diluted 1:500 (in CRP wash buffer) is added to each well, followed by incubation for 30 minutes at 37° C. Plates are washed 5× with CRP washing buffer using the automatic plate washer. 200 μl of 3,3′,5,5′-Tetramethyl Benzidine (TMB) liquid Substrate System (Sigma, St. Louis, Mo.) is added to each well, followed by incubation in the dark for 15 minutes at room temperature. Finally, 50 μl of 1 M H2SO4 is added to each well and absorbance at 450 nm is immediately measured in a microtiter spectrophotometer.
CRP measured as above is normalized to cell count per well, using a cell viability assay, such as the Cell Tracker Green assay. To do this, the remainder of the medium is from the cell test plates, cells are washed with 200 μl of pre-warmed 1×Hanks Basic Salt Solution (HBSS; GIBCO), and 100 μL of 5 μM Cell Tracker Green (Molecular Probes, Eugene, Oreg.) is added to each well. Plates are then incubated at 37° C. for 30 minutes. Cells are then washed twice with prewarmed 1×HBSS. Plates are immediately read using a Fluoroskan® flourometer with a 485 excitation/538 emission filter pair.

Each structure is given as a SMILES string.

For the molecule `Cc1c(O)cc2cc(C3(O)CN(C)CCO3)oc2c1C` (stereo not shown) [2-(5-Hydroxy-6,7-dimethyl-benzofuran-2-yl)-4-methyl-morpholin-2-ol], the 50% effective concentration (EC50) lay within 10 to 40 µM.
As for `CC(=O)c1oc2c(C)c(C)c(O)cc2c1Br` [1-(3-Bromo-5-hydroxy-6,7-dimethyl-benzofuran-2-yl)-ethanone], the figure is 10 to 40 µM; as for `CC(=O)c1cc2cc(O)c(C)c(C)c2o1` [1-(5-Hydroxy-6,7-dimethyl-benzofuran-2-yl)ethanone], 10 to 40 µM; as for `Cc1c(O)cc2cc(C(=O)CN3CCOCC3)oc2c1C` [1-(5-Hydroxy-6,7-dimethyl-benzofuran-2-yl)-2-morpholin-4-yl-ethanone], 10 to 40 µM.
Regarding `Cc1c(O)cc2c(-c3ccccc3)coc2c1C` [6,7-Dimethyl-3-phenyl-benzofuran-5-ol], the half-maximal effective concentration (EC50) lay in the range of 10 to 40 µM.
The value for `COc1ccc(-c2coc3c(C)c(C)c(O)cc23)cc1` [3-(4-Methoxy-phenyl)-6,7-dimethyl-benzofuran-5-ol] was 10 to 40 µM.
The value for `Cc1c(C)c2occ(-c3ccccc3)c2c2c(-c3ccccc3)coc12` [4,5-Dimethyl-1,8-diphenyl-benzo[1,2-b;4,3-b′]difuran] was 10 to 40 µM.
